US20210220450A1, “TREATMENT OF AN IOP CONDITION” (The Research Foundation for The State University of New York, priority 2013, published 2021)

Experiments:
Format in all cases: in vivo
[1] = test system: sheep of the Corriedale breed; experiment: Steroid-induced IOP elevation in sheep, intravitreal tPA (Examples 3, 4)
Method: Protocol 1. 8 sheep of the Corriedale breed were treated with prednisolone acetate three times a day in both eyes, leading to elevated IOP. After one week, the animals received intravitreal injections of human recombinant tPA (100, 200, 500 and 1000 μg, two animals each) dissolved in balanced salt solution (BSS) in one eye. IOP was monitored for 19 more days while the animals continued to receive treatment with prednisolone. Periodic slit lamp examination was also performed.
Protocol 2. In a second set of experiments, arginine was added to the BSS vehicle administered to the left eye to control for the relatively high concentration of the amino acid in the commercially available tPA lyophilisate. In these experiments all right eyes received 0.1 mg tPA, which concomitantly delivered 4.23 mg of arginine into the vitreous, and the left eye received this same amount of arginine, absent the tPA. On Day 1, prednisolone treatments were also begun simultaneously on both eyes.
Methods. In this experiment, the inventor sought to detect the effects of tPA treatment on prevention of steroid-induced IOP elevation. In 4 sheep tPA was injected in one eye (100 μg) and they were started on prednisolone acetate three times a day in both eyes. Animals were monitored for 11 days on continuous treatment.

[2] = test system: Mmp-9KO mice; experiment: Outflow facility in protein treated Mmp-9KO mouse eyes (Example 16); conditions: intravitreal protein, p>0.05
Method: PlatKO and Mmp-9KO mice were also not given steroids prior to protein injections (FIG. 10c). Within each cohort, animals were divided into two groups:
1) Animals that received unilateral intravitreal injection with 2 μl of tPA (5 μg/μl, Actilyse; Boehringer Ingelheim, Ingelheim am Rhein, Germany) while the contralateral eye received 2 μl of BSA (5 μg/μl; Gold Biotechnology, St Louis, Mo., USA), and 2) Animals that received unilateral intravitreal injections with 2 μl of non-enzymatically active tPA (NE-tPA/S478A-tPA) (5 μg/μl; Innovative Research, Novi, Mich., USA) while the contralateral eye received 2 μl of BSA. Animals were euthanized two days after intravitreal injection.
Outflow facility determination: Mouse eyes were enucleated immediately after euthanasia. Outflow facility was determined using a constant pressure method, as previously described. Pressure was raised in steps of 4 cmH2O, from 8 cmH2O (5.88 mmHg) to 32 cmH2O (23.54 mmHg) by increasing the height of a column of fluid of BSS. Steady state was initially achieved after 10 minutes. […] Flow was constantly measured via a microfluidic flow sensor (0.07-1.5 uL/min, MFS1; Elveflow, Paris, France). […] Any eyes that developed visible leaks during outflow facility determination, or that had pressure-flow correlations with R^2<0.9, were excluded from analysis but were used for RNA quantification.

[3] = test system: Tg-MYOCY437H mice; experiment: Outflow facility in Tg-MYOCY437H mouse eyes (Example 19)
Method: To investigate whether corticosteroids affect outflow facility in Tg-MYOCY437H mice, animals received bilateral injections (20 μl) with either triamcinolone acetonide (TA) (40 mg/ml, Kenalog-40; Bristol-Myers Squibb, NY, USA) suspension or phosphate-buffered saline (PBS) (Gibco, ThermoFisher Scientific, Waltham, Mass., USA) subconjunctivally using a 100 μL Hamilton syringe with a 26-gauge needle (Precision Glide, Becton Dickinson & CO, Franklin Lakes, N.J., USA). They were euthanized one week later for outflow facility measurement.
To investigate whether tPA can affect outflow facility in Tg-MYOCY437H mice, and determine whether tPA enzymatic action is necessary for such an effect, intravitreal injections were performed using a 10 μL Hamilton syringe with 36-gauge stainless steel needles (WPI Inc, Sarasota, Fla., USA). […] Animals were sacrificed either two or five days after intravitreal injections for outflow facility measurement. […]
Mouse eyes were enucleated immediately after euthanasia. Outflow facility was determined using a microfluidic flow sensor (0.07-1.5 uL/min, MFS1; Elveflow, Paris, France) and constant pressure method, as previously described (Hu, Barron et al. 2019). […] Any eyes that developed visible leaks or that had pressure-flow correlations with […] were excluded from analysis but were used for RNA quantification.

Question: How did the “prevention of steroid-induced IOP elevation” value ([1]; 100 μg in one eye, concurrent with prednisolone, 11 days) turn out when tissue plasminogen activator [tPA] was run?
Answer: The value was “prevented IOP elevation”.

Question: What about the ocular observations ([1]; intravitreal tPA, prednisolone-treated sheep, some eyes) of the same substance?
Answer: The ocular observations was “Transient injection and corneal clouding”.

Question: What about the “IOP after tPA” value ([1]; within 24 h, all intravitreal doses tested (100-1000 μg), prednisolone continued) of the same substance?
Answer: Its value is 14.1(±1.1) mmHg.

Question: What about the “effect on outflow facility” value [2] of the same substance?
Answer: Its value is “did not increase”.

Question: And the “improvement of outflow facility” value [3]?
Answer: The value was about 31%.
